{
  "source": "paper PMC12507957",
  "about": "(Drug Delivery and Translational Research, 2025)",
  "key": {"[1]": {"assay": "Stability studies of MTG in simple solvent systems with and without BHT", "assay_type": "physicochemical", "procedure": "Samples were analysed using Shimadzu liquid chromatographic system (Kyoto, Japan) with SPD-20A UV–vis detector set at 254 nm. A reverse phase ZORBAX Eclipse Plus C18 column (Agilent Technologies, 150 × 4.6 mm ID × 3.5 μm) coupled with a C18 guard column (Phenomenex SecurityGuard™, 4 × 3.0 mm ID × 5 μm) was employed as the stationary phase. A gradient elution method with acetonitrile and 0.1%v/v of formic acid as the mobile phase (30:70 to 70:30 (v/v) over 1 min and held until 4 min; then returned to 30:70 (v/v) from 4 to 6 min and held up until 10 min) at a flow rate of 1.2 mL/min was used. The injection volume was set at 100 μL and the total run time was 10 min with a retention time of ~ 4 min. The limits of detection and quantification were 0.47 and 1.43 μg/mL for a lower concentration drug range (0.5–10 μg/mL) and 4.29 and 13.01 μg/mL for a higher concentration drug range (10–175 μg/mL), respectively. The linearity for both calibration curves was excellent (R^2 > 0.999)."}, "[2]": {"details": "beagle dogs; cited from earlier work"}},
  "data": [
    {"smiles": "CC[C@@H]1CN2CCc3c([nH]c4cccc(OC)c34)[C@@H]2C[C@@H]1/C(=C\\OC)C(=O)OC", "note": "[MTG, mitragynine]", "values": [
      {"measurement": "Percentage recovery of MTG", "setting": "[1]; 200 μg/mL in DMSO without BHT, 32 °C, after 96 h", "result": "67.68 ± 1.22", "unit": "%"},
      {"measurement": "Percentage recovery of MTG", "setting": "[1]; 200 μg/mL in Labrasol with 0.01%w/v BHT, 32 °C, after 96 h", "result": "46.34 ± 2.49", "unit": "%"},
      {"measurement": "Percentage recovery of MTG", "setting": "[1]; 200 μg/mL in Labrasol without BHT, 32 °C, after 96 h", "result": "4.39 ± 0.70", "unit": "%"},
      {"measurement": "Percentage recovery of MTG", "setting": "[1]; 200 μg/mL in Lauroglycol without BHT, 32 °C, after 96 h", "result": "30.84 ± 1.21", "unit": "%"},
      {"measurement": "Percentage recovery of MTG", "setting": "[1]; 200 μg/mL in Maisine without BHT, 32 °C, after 96 h", "result": "19.65 ± 1.17", "unit": "%"},
      {"measurement": "Percentage recovery of MTG", "setting": "[1]; 200 μg/mL in PG without BHT, 32 °C, after 96 h", "result": "73.82 ± 1.05", "unit": "%"},
      {"measurement": "Percentage recovery of MTG", "setting": "[1]; 200 μg/mL in Transcutol without BHT, 32 °C, after 96 h", "result": "40.23 ± 5.46", "unit": "%"},
      {"measurement": "Percentage recovery of MTG", "setting": "[1]; DMSO, PG and Transcutol with at least 0.05%w/v of BHT", "result": "above 80%"},
      {"measurement": "Percentage recovery of MTG", "setting": "[1]; in all solvents (without BHT) after 96 h", "result": "< 80", "unit": "%"},
      {"measurement": "Percentage recovery of MTG", "setting": "[1]; remaining solvents (Transcutol, Lauroglycol, Maisine, Labrasol) without BHT, after 96 h", "result": "< 50", "unit": "%"},
      {"measurement": "Oral bioavailability", "setting": "[2]", "result": 69.6, "unit": "%"}
    ]}
  ]
}
